Values quoted from earlier work in US20110321180A1, “COMPOSITIONS AND METHODS TO GENERATE PILOSEBACEOUS UNITS” (University of Southern California, priority 2008, published 2011).

Key:
[1] = in published reports
[2] = DMSO

**Q.** With `c1cc(-c2cnn3cc(-c4ccc(OCCN5CCCCC5)cc4)cnc23)ccn1` [Dorsomorphin] as the molecule, how does the toxicity [1] read?
**A.** low toxicity

**Q.** And the solubility [2]?
**A.** soluble in DMSO

B1: noggin: BMP antagonist protein, UniProt: Q13253 (protein, UniProt Q13253 28-232, looked up)
Noggin: QHYLHIRPAPSDNLPLVDLIEHPDPIFDPKEKDLNETLLRSLLGGHYDPGFMATSPPEDRPGGGGGAAGGAEDLAELDQLLRQRPSGAMPSEIKGLEFSEGLAQGKKQRLSKKLRRKLQMWLWSQTFCPVLYAWNDLGSRFWPRYVKVGSCFSKRSCSVPEGMVCKPSKSVHLTVLRWRCQRRGGQRCGWIPIQYPIISECKCSC
**Q.** For B1, which “size of hair germs” value (hair germs) is on record?
**A.** makes hair germs bigger
